In patent US8883801B2, “Substituted pyrazolo[1,5-a]pyrimidines as mTOR inhibitors” (Merck Sharp & Dohme Corp., priority 2010, dated 2014):

How the values were obtained:
[1] = system: mTORC2 activity: phosphorylated AKT Ser473 (pAKT S473) in PC3 cells; assay: mTOR target engagement assay, immunofluorescent cell-based, mTORC2 readout; conditions: Homo sapiens, PC-3, 1.5 h, rated class, 90 min treatment
Summary of the method: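 Read-out is immunofluorescence intensity, normalized to DMSO-only wells and fitted to a sigmoidal Hill equation for IC50. The mTORC1 arm probes phospho-4E-BP1 Thr37/46 and the mTORC2 arm phospho-AKT Ser473.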

[2] = system: mTORC1 activity: phosphorylated 4E-BP1 Thr37/46 (p4E-BP1 Thr37/46) in PC3 cells; assay: mTOR target engagement assay, immunofluorescent cell-based, mTORC1 readout; conditions: Homo sapiens, PC-3, 1.5 h, rated class, 90 min treatment, read-out: P4EBP1 IC50
Description: The target engagement of mTOR kinase inhibitors was evaluated using an immunofluorescent cell-based assay. In this assay, inhibition of mTORC1 activity was measured by the reduction in the level of phosphorylated 4E-BP1Thr37/46 (p4E-BP1 Thr37/46), and inhibition of mTORC2 activity was measured by the reduction of phosphorylated AKTSer473 (pAKT S473).
PC3 cells (prostate tumor cell-line that contains a mutation in the tumor suppressor PTEN, that promotes the phosphorylation and activation of AKT and 4E-BP1) were used in the immunofluorescence assay. PC3 cells were seeded on 384 well plates (black clear bottom, Matrix #4332) overnight. PC3 cells were then treated with 40 μl of the serially diluted test compounds (in 5% fetal bovine serum, F12 medium containing 0.25% DMSO) for ninety minutes at 37° C. The test compound solution was removed, and the plates were washed gently two times with 25 μl phosphate buffered saline (PBS). The cells were fixed by adding 25 μl of Prefer reagent (from Anatech LTD, Cat#414, a glyoxal fixative for fixing proteins within a cell) for sixty minutes followed by three washes with PBS. 5% Goat serum in PBS/0.3% Triton was used to block non-specific binding (60 minutes).
The primary antibodies targeting pAKT S473 and p4E-BP1 Thr37/46 were diluted into PBS/0.3% Triton and incubated with the cells overnight at 4° C. The antibodies targeting pAKTS473 (Cat#4085, Cell signaling) and p4E-BP1 Thr37/46 (Cat#2855, Cell signaling) were used at a 1:100 dilution. Plates were washed three times with PBS/0.1% Tween 20 before adding the secondary antibody at a 1:200 dilution. (goat anti-rabbit containing a fluorescent label, Alexa Fluor 488, Cat#A11008, Invitrogen) in PBS/0.3% Triton for 60 minutes.
Finally, the plates were washed three times with PBS/0.1% Tween 20 and the fluorescent intensity was read using an Analyst HT from Molecular Devices. The fluorescent intensity values from the serially diluted compound treatment group were analyzed using the Xlfit 4 program ([…]) (Formula 205: Y=Bottom+(Top-Bottom)/(1+(IC50/X)^Hillslope) to generate the IC50 value. Where Top is the maximum signal without Compound (+DMSO only) and Bottom represents maximum inhibition. Y is the fluorescence at some compound concentration. The control used to determine the fluorescent intensities for 100% pAKT S473 or 100% phosphorylated p4E-BP1 Thr37/46 were measured from untreated wells that contained only DMSO, instead of test compound.

human mTOR enzyme = human mTOR enzyme (Homo sapiens, UniProt P42345); assay: HTRF mTOR enzyme (kinase) assay; assay type: biochemical; conditions: rated class; 5 μM ATP, 0.2 μM GST-S6K; read-out: hMTOR IC50
Chain of human mTOR enzyme (P42345 1360-2549 limits assumed): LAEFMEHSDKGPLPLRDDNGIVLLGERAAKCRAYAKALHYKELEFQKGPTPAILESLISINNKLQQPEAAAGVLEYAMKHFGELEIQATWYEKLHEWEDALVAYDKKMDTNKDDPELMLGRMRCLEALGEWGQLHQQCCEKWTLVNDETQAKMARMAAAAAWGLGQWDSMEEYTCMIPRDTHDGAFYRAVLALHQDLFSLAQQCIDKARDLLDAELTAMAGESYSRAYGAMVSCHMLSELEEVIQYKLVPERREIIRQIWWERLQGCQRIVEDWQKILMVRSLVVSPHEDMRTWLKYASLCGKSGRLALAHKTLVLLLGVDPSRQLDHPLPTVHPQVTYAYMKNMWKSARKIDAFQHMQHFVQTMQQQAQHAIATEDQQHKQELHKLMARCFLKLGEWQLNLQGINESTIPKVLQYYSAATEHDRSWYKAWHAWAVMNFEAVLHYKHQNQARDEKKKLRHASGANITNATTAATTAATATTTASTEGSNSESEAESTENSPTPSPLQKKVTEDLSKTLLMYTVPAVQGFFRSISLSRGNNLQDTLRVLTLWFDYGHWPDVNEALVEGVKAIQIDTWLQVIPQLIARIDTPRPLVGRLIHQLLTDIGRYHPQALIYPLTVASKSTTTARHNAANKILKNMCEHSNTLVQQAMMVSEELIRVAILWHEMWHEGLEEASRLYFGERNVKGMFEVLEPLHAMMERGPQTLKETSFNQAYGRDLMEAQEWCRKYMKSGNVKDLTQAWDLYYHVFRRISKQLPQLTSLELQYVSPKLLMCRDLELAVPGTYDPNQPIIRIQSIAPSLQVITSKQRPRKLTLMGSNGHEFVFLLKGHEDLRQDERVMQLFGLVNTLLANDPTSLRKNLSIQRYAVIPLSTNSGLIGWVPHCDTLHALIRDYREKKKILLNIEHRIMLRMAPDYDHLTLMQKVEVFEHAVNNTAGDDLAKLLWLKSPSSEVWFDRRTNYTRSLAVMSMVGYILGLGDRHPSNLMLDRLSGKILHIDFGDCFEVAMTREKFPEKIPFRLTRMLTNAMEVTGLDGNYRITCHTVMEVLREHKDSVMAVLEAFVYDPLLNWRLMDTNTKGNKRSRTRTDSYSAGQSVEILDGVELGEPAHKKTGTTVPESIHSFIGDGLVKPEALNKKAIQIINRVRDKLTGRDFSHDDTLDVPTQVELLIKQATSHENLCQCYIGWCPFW

Row | IC50 [1] | IC50 [2] | IC50 (human mTOR enzyme) | SMILES
1 | 5000 to 15000 nM | 5000 to 15000 nM | 1 to 100 nM | COCCO[C@]1(C(=O)O)CC[C@@H](c2nc3c(-c4cnc(-c5ccccc5)nc4)cnn3c(N)c2S(C)(=O)=O)CC1 [Compound 46, (1R,4R)-4-(7-amino-6-(methylsulfonyl)-3-(2-phenylpyrimidin-5-yl)pyrazolo[1,5-a]pyrimidin-5-yl)-1-(2-methoxyethoxy) cyclohexanecarboxylic acid]
2 | 2000 to 5000 nM | 2000 to 5000 nM | 1 to 100 nM | COCCO[C@]1(C(=O)O)CC[C@@H](c2nc3c(-c4ccc(-c5nccs5)nc4)cnn3c(N)c2S(C)(=O)=O)CC1 [Compound 47, (1R,4R)-4-(7-amino-6-(methylsulfonyl)-3-(6-(thiazol-2-yl)pyridin-3-yl)pyrazolo[1,5-a]pyrimidin-5-yl)-1-(2-methoxyethoxy) cyclohexanecarboxylic acid]
3 | 5000 to 15000 nM | 5000 to 15000 nM | 1 to 100 nM | COCCO[C@]1(C(=O)O)CC[C@@H](c2nc3c(-c4ccc(-c5ccc(O)c(F)c5)nc4)cnn3c(N)c2S(C)(=O)=O)CC1 [Compound 48, (1R,4R)-4-(7-amino-3-(6-(3-fluoro-4-hydroxyphenyl)pyridin-3-yl)-6-(methylsulfonyl)-pyrazolo[1,5-a]-pyrimidin-5-yl)-1-(2-methoxyethoxy)-cyclohexanecarboxylic acid]
4 | 100 to 1000 nM | 100 to 1000 nM | 1 to 100 nM | COCCO[C@]1(C(=O)O)CC[C@@H](c2nc3c(-c4ccc(-c5ccccn5)nc4)cnn3c(N)c2S(C)(=O)=O)CC1 [Compound 50, (1R,4R)-4-(3-(2,2′-bipyridin-5-yl)-7-amino-6-(methylsulfonyl)-pyrazolo[1,5-a]-pyrimidin-5-yl)-1-(2-methoxyethoxy)-cyclohexanecarboxylic acid]
5 | 100 to 1000 nM | 1000 to 2000 nM | 1 to 100 nM | COCCO[C@]1(C(=O)O)CC[C@@H](c2nc3c(-c4cnc(-c5ncc(C)s5)nc4)cnn3c(N)c2S(C)(=O)=O)CC1 [Compound 51, (1R,4R)-4-(7-amino-6-(methylsulfonyl)-3-(2-(5-methylthiazol-2-yl)pyrimidin-5-yl)pyrazolo[1,5-a]pyrimidin-5-yl)-1-(2-methoxyethoxy) cyclohexanecarboxylic acid]
6 | 100 to 1000 nM | 100 to 1000 nM | 1 to 100 nM | COCCO[C@]1(C(=O)O)CC[C@@H](c2nc3c(-c4cnc5ccc(F)cc5c4)cnn3c(N)c2S(C)(=O)=O)CC1 [Compound 52, (1R,4R)-4-(7-amino-3-(6-fluoroquinolin-3-yl)-6-(methylsulfonyl)-pyrazolo[1,5-a]-pyrimidin-5-yl)-1-(2-methoxyethoxy)-cyclohexanecarboxylic acid]
7 | 100 to 1000 nM | 100 to 1000 nM | 1 to 100 nM | COCCO[C@]1(C(=O)O)CC[C@@H](c2nc3c(-c4ccc(-c5ccccc5)nc4)cnn3c(N)c2Br)CC1 [Compound 64, (1R,4R)-4-(7-amino-6-bromo-3-(6-phenylpyridin-3-yl)pyrazolo[1,5-a]pyrimidin-5-yl)-1-(2-methoxyethoxy)cyclohexanecarboxylic acid]
8 | 100 to 1000 nM | 100 to 1000 nM | 1 to 100 nM | Nc1c(Br)c([C@H]2CC[C@@](OCCN3CCOCC3)(C(=O)O)CC2)nc2c(-c3cnn(-c4ccccc4)c3)cnn12 [Compound 67, (1R,4R)-4-(7-amino-6-bromo-3-(1-phenyl-1H-pyrazol-4-yl)pyrazolo[1,5-a]pyrimidin-5-yl)-1-(2-morpholinoethoxy) cyclohexanecarboxylic acid]
9 | 2000 to 5000 nM | 2000 to 5000 nM | 1 to 100 nM | COCCO[C@]1(C(=O)O)CC[C@@H](c2nc3c(-c4ccc(-c5ccc(OC)c(F)c5)nc4)cnn3c(N)c2Br)CC1 [Compound 68, (1R,4R)-4-(7-amino-6-bromo-3-(6-(3-fluoro-4-methoxyphenyl)-pyridin-3-yl)-pyrazolo[1,5-a]pyrimidin-5-yl)-1-(2-methoxyethoxy) cyclohexanecarboxylic acid]
10 | 1 to 100 nM | 1 to 100 nM | 1 to 100 nM | COCCO[C@]1(C(=O)O)CC[C@@H](c2nc3c(-c4cnn(-c5ccccc5)c4)cnn3c(N)c2C#N)CC1 [Compound 69, (1R,4R)-4-(7-amino-6-cyano-3-(1-phenyl-1H-pyrazol-4-yl)pyrazolo[1,5-a]pyrimidin-5-yl)-1-(2-methoxyethoxy)cyclohexanecarboxylic acid]
11 | 100 to 1000 nM | 100 to 1000 nM | 1 to 100 nM | COCCO[C@]1(C(=O)NS(C)(=O)=O)CC[C@@H](c2nc3c(-c4cnn(-c5ccccc5)c4)cnn3c(N)c2C(C)=O)CC1 [Compound 70, (1R,4R)-4-(6-acetyl-7-amino-3-(1-phenyl-1H-pyrazol-4-yl)pyrazolo[1,5-a]pyrimidin-5-yl)-1-(2-methoxyethoxy)-N-(methylsulfonyl)cyclohexanecarboxamide]
12 | 1000 to 2000 nM | 1000 to 2000 nM | 1 to 100 nM | COCCOC1(C(=O)NS(C)(=O)=O)CCC(c2nc3c(-c4cnn(-c5ccccc5)c4)cnn3c(N)c2S(C)(=O)=O)CC1 (stereo not drawn) [Compound 71, 4-(7-amino-6-(methylsulfonyl)-3-(1-phenyl-1H-pyrazol-4-yl)pyrazolo[1,5-a]pyrimidin-5-yl)-1-(2-methoxyethoxy)-N-(methylsulfonyl)cyclohexanecarboxamide]
13 | 100 to 1000 nM | 100 to 1000 nM | 1 to 100 nM | Nc1c(Br)c([C@H]2CC[C@@](O)(CC(=O)O)CC2)nc2c(-c3ccc(-c4ccccc4)nc3)cnn12 [Compound 76, 2-((1R,4R)-4-(7-amino-6-bromo-3-(6-phenylpyridin-3-yl)pyrazolo[1,5-a]pyrimidin-5-yl)-1-hydroxycyclohexyl)acetic acid]
14 | 100 to 1000 nM | 100 to 1000 nM | 1 to 100 nM | Nc1c(Br)c([C@H]2CC[C@](O)(CC(=O)O)CC2)nc2c(-c3cnn(-c4ccccc4)c3)cnn12 [Compound 78, 2-((1S,4S)-4-(7-amino-6-bromo-3-(1-phenyl-1H-pyrazol-4-yl)pyrazolo[1,5-a]pyrimidin-5-yl)-1-hydroxycyclohexyl)-acetic acid]
15 | 1 to 100 nM | 1 to 100 nM | 1 to 100 nM | COCCO[C@]1(C(=O)NO)CC[C@@H](c2nc3c(-c4cnn(-c5ccccc5)c4)cnn3c(N)c2S(C)(=O)=O)CC1 [Compound 88, (1R,4R)-4-(7-amino-6-(methylsulfonyl)-3-(1-phenyl-1H-pyrazol-4-yl)pyrazolo[1,5-a]pyrimidin-5-yl)-N-hydroxy-1-(2-methoxyethoxy)cyclohexanecarboxamide]
16 | 1 to 100 nM | 1 to 100 nM | 1 to 100 nM | COCCO[C@]1(C(=O)NOC)CC[C@@H](c2nc3c(-c4cnn(-c5ccccc5)c4)cnn3c(N)c2S(C)(=O)=O)CC1 [Compound 89, (1R,4R)-4-(7-amino-6-(methylsulfonyl)-3-(1-phenyl-1H-pyrazol-4-yl)pyrazolo[1,5-a]pyrimidin-5-yl)-N-methoxy-1-(2-methoxyethoxy)-cyclohexane-carboxamide]
17 | 100 to 1000 nM | 1000 to 2000 nM | 1 to 100 nM | CNC(=O)[C@]1(OCCOC)CC[C@H](c2nc3c(-c4cnn(-c5ccccc5)c4)cnn3c(N)c2S(C)(=O)=O)CC1 [Compound 90, (1R,4R)-4-(7-amino-6-(methylsulfonyl)-3-(1-phenyl-1H-pyrazol-4-yl)pyrazolo[1,5-a]pyrimidin-5-yl)-1-(2-methoxyethoxy)-N-methylcyclohexane-carboxamide]
18 | 100 to 1000 nM | 1000 to 2000 nM | 1 to 100 nM | COCCO[C@]1(C(=O)N(C)C)CC[C@@H](c2nc3c(-c4cnn(-c5ccccc5)c4)cnn3c(N)c2S(C)(=O)=O)CC1 [Compound 91, (1R,4R)-4-(7-amino-6-(methylsulfonyl)-3-(1-phenyl-1H-pyrazol-4-yl)pyrazolo[1,5-a]pyrimidin-5-yl)-1-(2-methoxyethoxy)-N,N-dimethylcyclohexane-carboxamide]
